Patent publication US20110105397A1, “METHOD FOR TREATING HEART FAILURE WITH STRESSCOPIN-LIKE PEPTIDES” (priority 2009, published 2011)
Where a SMILES comes first, the peptide text is derived from it. Where no end group is shown, it is not given here. The star is where a group is joined. Succinimide(1-Et,3-yl) = CCN1C(=O)CC(*)C1=O

Biological target: T1, human CRHR2 (Homo sapiens, UniProt Q13324)
T1 construct: expressed in transfected cells
T1 sequence (Q13324 1-411): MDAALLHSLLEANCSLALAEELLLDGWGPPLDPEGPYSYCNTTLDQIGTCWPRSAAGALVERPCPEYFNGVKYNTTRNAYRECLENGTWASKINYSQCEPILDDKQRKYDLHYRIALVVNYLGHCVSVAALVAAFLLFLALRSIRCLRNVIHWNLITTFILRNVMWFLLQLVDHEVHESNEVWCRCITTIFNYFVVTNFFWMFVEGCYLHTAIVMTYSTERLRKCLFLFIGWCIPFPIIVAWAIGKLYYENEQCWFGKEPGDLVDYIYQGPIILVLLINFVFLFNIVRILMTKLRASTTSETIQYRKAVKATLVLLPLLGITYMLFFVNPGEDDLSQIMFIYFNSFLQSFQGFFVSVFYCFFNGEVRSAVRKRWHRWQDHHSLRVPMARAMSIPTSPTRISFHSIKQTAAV
Assay: cAMP assay, h-CRHR2 transfected SK-N-MC cells
Format: cell-based
Settings: Table 13; for EC50: cysteine mutation, N-ethylmaleimide capping, pegylation, read-out: pA50 (converted); for Log DR [M]: h-SCP control pA50 minus test compound pA50 within the same assay batch
Procedure: The concentration required for 50% maximum effect (A50) was 0.4 nM.
Human CRHR1 (accession number X72304) or CRHR2 (accession number U34587) were cloned into pcDNA3.1/Zeo expression vector and stably transfected into SK—N-MC cells by electroporation. Cells were maintained in MEM w/Earl's Salt with 10% FBS, 50 I.U. penicillin, 50 μg/ml streptomycin, 2 mM L-glutamine, 1 mM sodium pyruvate and 0.1 mM non-essential amino acids, 600 μg/ml G418. Cells were grown at 37° C. in 5% CO2
Cells were plated in 96-well tissue culture dishes (Biocoat from BD Biosciences) overnight at 50,000 cell/well. Cells were washed with PBS then resuspended in DMEM F-12 without phenol red, containing 10 μM isobutylmethylxanthine (IBMX). Cells were incubated with the peptides at concentrations ranging from 1 pM to 10 μM for 60 min at 37° Celsius. […] Forskolin (10 μM), a direct stimulant of adenylate cyclase, was used as positive control. The assays were stopped by the addition of 0.5 M HCl and mixing by orbital rotation for 2 h at 4° Celsius.
To assess the activity of the inventive polypeptide at the CRHR2, an intracellular cAMP measurement test using a Flash plate radioactive assay (Catalog No. Cus56088; Perkin Elmer, Mass., U.S.A.) was employed.
Transfected SK—N-MC cells were plated in 96-well Biocoat tissue culture dishes (BD Biosciences, San Jose, Calif., U.S.A) overnight at 50,000 cell/well. Cells were first washed with PBS and then suspended with DMEM/F-12 without phenol red, containing […]. Suspended cells were transferred into a 96-well flash plate coated with scintillant fluid. Cells were incubated with peptides ranging from 1 pM to 1 μM, for 60 min, at 37° Celsius. Forskolin at 10 μM was used as positive control. After ligand stimulation, cells were lysed by the addition of 0.5M HCl and mixed by orbital rotation for 2 h at 4° Celsius in order to release intracellular cAMP into the media.
Media containing released intracellular cAMP was transferred to a 96-well flash plate coated with scintillant fluid containing an anti-cAMP antibody. In this assay, intracellular cAMP competes with ^125I-labeled cAMP binding to the antibody. To generate a standard curve, cAMP ranging from 2.5 to 250 pmoles/ml was included in the experiment. [^125I]-cAMP was measured on a TopCount scintillation counter (Perkin Elmer, Mass., U.S.A).
Individual agonist concentration-response curve data were fitted to the Hill equation, see formula below, using GraphPad Prism (Graphpad Software, La Jolla, Calif., U.S.A.), to provide estimates of agonist concentration needed to generate one-half maximal response (A50), and the maximal asymptote (α) and Hill slope (nH) parameters. In this equation, [A] is the agonist concentration and E is the measured effect:
For display purposes the mean fitted parameter estimates were used to generate a single E/[A] curve shown superimposed on the mean experimental data. Potency estimates for agonists, pA50, are expressed as the negative logarithm of the midpoint of each curve and listed with their standard error of measurement (SEM). Logarithm base 10 of the agonist dose ratio (Log DR) values were calculated by subtraction of the test compound pA50 value from the corresponding h-SCP (SEQ ID NO:1) control pA50 value within the same assay batch. The SEM values of the Log DR values are given by the square root of the sum of the squared SEM values of the h-SCP (SEQ ID NO:1) control and test compound pA50 values.
Human and rat peptides (see Table 10) were used on the stimulation of h-CRHR1 or h-CRHR2 transfected SK—N-MC cells in the cAMP flash plate assay. Peptides were incubated for 1 hr at 37° Celsius. Curves were calculated using non-linear regression sigmoidal concentration-response analysis calculation in GraphPad Prism. The so obtained pA50 values are shown in Table 11 in addition to literature values. […]

EC50 [nM]	Log DR [M]	Molecule
3.89	1.11	TKFTLSLDVPTNIMNLCFNIAKAKNLRAQAAANAHLMAQI-NH2 [SEQ ID NO: 18, TKFTLSLDVPTNIMNLCFNIAKAKNLRAQAAANAHLMAQI-NH2]
5.25	1.30	TKFTLSLDCPTNIMNLLFNIAKAKNLRAQAAANAHLMAQI-NH2 [SEQ ID NO: 10, TKFTLSLDCPTNIMNLLFNIAKAKNLRAQAAANAHLMAQI-NH2]
0.331	−0.01	CC[C@H](C)[C@H](NC(=O)[C@H](CCC(N)=O)NC(=O)[C@H](C)NC(=O)[C@H](CCSC)NC(=O)[C@H](CC(C)C)NC(=O)[C@H](Cc1c[nH]cn1)NC(=O)[C@H](C)NC(=O)[C@H](CC(N)=O)NC(=O)[C@H](C)NC(=O)[C@H](C)NC(=O)[C@H](C)NC(=O)[C@H](CCC(N)=O)NC(=O)[C@H](C)NC(=O)[C@H](CCCNC(=N)N)NC(=O)[C@H](CC(C)C)NC(=O)[C@H](CC(N)=O)NC(=O)[C@H](CSC1CC(=O)N(CC)C1=O)NC(=O)[C@H](C)NC(=O)[C@H](CCCCN)NC(=O)[C@H](C)NC(=O)[C@@H](NC(=O)[C@H](CC(N)=O)NC(=O)[C@H](Cc1ccccc1)NC(=O)[C@H](CC(C)C)NC(=O)[C@H](CC(C)C)NC(=O)[C@H](CC(N)=O)NC(=O)[C@H](CCSC)NC(=O)[C@@H](NC(=O)[C@H](CC(N)=O)NC(=O)[C@@H](NC(=O)[C@@H]1CCCN1C(=O)[C@@H](NC(=O)[C@H](CC(=O)O)NC(=O)[C@H](CC(C)C)NC(=O)[C@H](CO)NC(=O)[C@H](CC(C)C)NC(=O)[C@@H](NC(=O)[C@H](Cc1ccccc1)NC(=O)[C@H](CCCCN)NC(=O)[C@@H](N)[C@@H](C)O)[C@@H](C)O)C(C)C)[C@@H](C)O)[C@@H](C)CC)[C@@H](C)CC)C(N)=O (stereo partly drawn) [SEQ ID NO: 50, TKFTLSLDVPTNIMNLLFNIAKAC(-NES)N LRAQA AANAH LMAQI-NH2] (H-TKFTLSLDVPTNIMNLLFNIAKAC(Succinimide(1-Et,3-yl))NLRAQAAANAHLMAQI-NH2; N-terminus assumed)
2.24	1.03	TKCTLSLDVPTNIMNLLFNIAKAKNLRAQAAANAHLMAQI-NH2 [SEQ ID NO: 4, TKCTLSLDVPTNIMNLLFNIAKAKNLRAQAAANAHLMAQI-NH2]
~151	2.86	TKFTLSCDVPTNIMNLLFNIAKAKNLRAQAAANAHLMAQI-NH2 [SEQ ID NO: 8, TKFTLSCDVPTNIMNLLFNIAKAKNLRAQAAANAHLMAQI-NH2]

More lines, now with the values behind:

Molecule	EC50 [nM]	Log DR [M]
CC[C@H](C)[C@H](NC(=O)[C@H](CCC(N)=O)NC(=O)[C@H](C)NC(=O)[C@H](CCSC)NC(=O)[C@H](CC(C)C)NC(=O)[C@H](Cc1c[nH]cn1)NC(=O)[C@H](C)NC(=O)[C@H](CSC1CC(=O)N(CC)C1=O)NC(=O)[C@H](C)NC(=O)[C@H](C)NC(=O)[C@H](C)NC(=O)[C@H](CCC(N)=O)NC(=O)[C@H](C)NC(=O)[C@H](CCCNC(=N)N)NC(=O)[C@H](CC(C)C)NC(=O)[C@H](CC(N)=O)NC(=O)[C@H](CCCCN)NC(=O)[C@H](C)NC(=O)[C@H](CCCCN)NC(=O)[C@H](C)NC(=O)[C@@H](NC(=O)[C@H](CC(N)=O)NC(=O)[C@H](Cc1ccccc1)NC(=O)[C@H](CC(C)C)NC(=O)[C@H](CC(C)C)NC(=O)[C@H](CC(N)=O)NC(=O)[C@H](CCSC)NC(=O)[C@@H](NC(=O)[C@H](CC(N)=O)NC(=O)[C@@H](NC(=O)[C@@H]1CCCN1C(=O)[C@@H](NC(=O)[C@H](CC(=O)O)NC(=O)[C@H](CC(C)C)NC(=O)[C@H](CO)NC(=O)[C@H](CC(C)C)NC(=O)[C@@H](NC(=O)[C@H](Cc1ccccc1)NC(=O)[C@H](CCCCN)NC(=O)[C@@H](N)[C@@H](C)O)[C@@H](C)O)C(C)C)[C@@H](C)O)[C@@H](C)CC)[C@@H](C)CC)C(N)=O (stereo partly drawn) [SEQ ID NO: 44, TKFTLSLDVPTNIMNLLFNIAKAKNLRAQAAAC(-NES)AH LMAQI-NH2] (H-TKFTLSLDVPTNIMNLLFNIAKAKNLRAQAAAC(Succinimide(1-Et,3-yl))AHLMAQI-NH2)	~31.6	~1.97
H-TKFTLSLDVPTNIMCLLFNIAKAKNLRAQAAANAHLMAQI-NH2 [SEQ ID NO: 16, TKFTLSLDVPTNIMCLLFNIAKAKNLRAQAAANAHLMAQI-NH2]	1.17	0.76
H-TKFTLSLDVPTNIMNLLFNIAKAKNLRAQAACNAHLMAQI-NH2 [SEQ ID NO: 33, TKFTLSLDVPTNIMNLLFNIAKAKNLRAQAACNAHLMAQI-NH2]	0.851	0.45
TKFTLSLDVPTNIMNLLFNIAKACNLRAQAAANAHLMAQI-NH2 [SEQ ID NO: 25, TKFTLSLDVPTNIMNLLFNIAKACNLRAQAAANAHLMAQI-NH2]	0.676	0.35
TKFTLSLCVPTNIMNLLFNIAKAKNLRAQAAANAHLMAQI-NH2 [SEQ ID NO: 9, TKFTLSLCVPTNIMNLLFNIAKAKNLRAQAAANAHLMAQI-NH2]	15.8	1.89
TKFTLSLDVPTNIMNLLFNIAKAKNLRAQAAANAHCMAQI-NH2 [SEQ ID NO: 37, TKFTLSLDVPTNIMNLLFNIAKAKNLRAQAAANAHCMAQI-NH2]	2.63	1.05
CC[C@H](C)[C@H](NC(=O)[C@H](CCC(N)=O)NC(=O)[C@H](C)NC(=O)[C@H](CCSC)NC(=O)[C@H](CC(C)C)NC(=O)[C@H](Cc1c[nH]cn1)NC(=O)[C@H](C)NC(=O)[C@H](CC(N)=O)NC(=O)[C@H](C)NC(=O)[C@H](C)NC(=O)[C@H](C)NC(=O)[C@H](CCC(N)=O)NC(=O)[C@H](C)NC(=O)[C@H](CCCNC(=N)N)NC(=O)[C@H](CC(C)C)NC(=O)[C@H](CC(N)=O)NC(=O)[C@H](CCCCN)NC(=O)[C@H](C)NC(=O)[C@H](CCCCN)NC(=O)[C@H](C)NC(=O)[C@@H](NC(=O)[C@H](CC(N)=O)NC(=O)[C@H](Cc1ccccc1)NC(=O)[C@H](CSC1CC(=O)N(CC)C1=O)NC(=O)[C@H](CC(C)C)NC(=O)[C@H](CC(N)=O)NC(=O)[C@H](CCSC)NC(=O)[C@@H](NC(=O)[C@H](CC(N)=O)NC(=O)[C@@H](NC(=O)[C@@H]1CCCN1C(=O)[C@@H](NC(=O)[C@H](CC(=O)O)NC(=O)[C@H](CC(C)C)NC(=O)[C@H](CO)NC(=O)[C@H](CC(C)C)NC(=O)[C@@H](NC(=O)[C@H](Cc1ccccc1)NC(=O)[C@H](CCCCN)NC(=O)[C@@H](N)[C@@H](C)O)[C@@H](C)O)C(C)C)[C@@H](C)O)[C@@H](C)CC)[C@@H](C)CC)C(N)=O (stereo partly drawn) [SEQ ID NO: 53, TKFTL SLDVP TNIMN LC(-NES)FNI AKAKN LRAQA AANAH LMAQI-NH2] (H-TKFTLSLDVPTNIMNLC(Succinimide(1-Et,3-yl))FNIAKAKNLRAQAAANAHLMAQI-NH2)	~56.2	~2.22
